Test results taken from patent US20110150774A1, “SCREENING FOR MODULATORS OF CES1 AND/OR CES3 FOR THE TREATMENT OF ACNE, OF SEBORRHOEIC DERMATITIS OR OF HYPERSEBORRHOEA” (GALDERMA RESEARCH & DEVELOPMENT, priority 2008, published 2011).

How the values were obtained:
Format in all cases: in vivo
[1] = tested on: CES3; assay: CES3 gene expression in rat sebaceous gland (epidermal split) after topical PPARgamma agonist, real-time PCR; conditions: topical 1% in acetone, female FUZZY rat, mRNA standardized to 18S, versus carrier group; for CES3 Relative induction - kinetics (hours): 0: 0 hours; for CES3 Relative induction - kinetics (hours): 8: 8 hours; for CES3 Relative induction - kinetics (hours): 24: 24 hours; for CES3 Relative induction - kinetics (hours): 48: 48 hours; for CES3 Relative induction - kinetics (hours): 96: 96 hours
From the text: (§1) Materials and methods: • Animals: Species: rat • Strain: Ico:Hsd FUZZY-fz • Gender: female • Age: 10 weeks • Number per batch: 40 (8 animals per group) • Treatment: Route of administration: topical • Compound/batch: PPARgamma agonists: • A: 5-{4-[2-(methylpyridin-2-ylamino)ethoxy]benzyl}thiazolidine-2,4-dione • B: 2-(methoxyethoxymethoxy)naphthalene-2-carboxylic acid [4′-(2,4-dioxothiazolidin-5-ylmethyl)biphenyl-3-ylmethyl]methylamide […] • C: (S)-2-ethoxy-3-{4-[6-(3-heptyl-1-methylureido)pyridin-2-yl]phenyl}propionic acid • Doses: 1% • Carrier: acetone (001) • Duration: 96 hours Method of evaluation: The animals are weighed at the beginning and at the end of the study. Skin biopsies are taken (6 samples of skin excised per rat) in order to analyze the expression of the genes (RNA extraction, reverse transcriptase and real-time PCR). The samples are stored at 4° C. overnight before incubation in 1 M sodium bromide (NaBr) for 2 hours at 37° C. After incubation, the samples are separated into epidermis or dermis. The epidermal samples are stored at […]. Under these conditions, the sebaceous glands are in the epidermal split. PCRs are carried out, beginning with the cDNAs originating from the epidermal splits containing sebaceous glands from control rats or rats treated with a PPARγ agonist: the mRNA is extracted using a column and quantified. The quality of the mRNAs is measured and is represented by the 18S/28S ratio. The results are standardized with respect to 18S, expressed as relative induction versus untreated animals (carrier group). The statistical analysis is obtained using internal software based on a modified Monte Carlo statistical analysis.

[2] = tested on: CES1; assay: CES1 gene expression in rat sebaceous gland (epidermal split) after topical PPARgamma agonist, real-time PCR; conditions: topical 1% in acetone, female FUZZY rat, mRNA standardized to 18S, versus carrier group; for CES1 Relative induction - kinetics (hours): 0: 0 hours; for CES1 Relative induction - kinetics (hours): 8: 8 hours; for CES1 Relative induction - kinetics (hours): 24: 24 hours; for CES1 Relative induction - kinetics (hours): 48: 48 hours; for CES1 Relative induction - kinetics (hours): 96: 96 hours
From the text: as §1, with “Ico:HSd:FUZZY-fz” for “Ico:Hsd FUZZY-fz”

[3] = tested on: CES3; assay: CES3 expression in Fuzzy rat epidermal split after 8 days of topical treatment, Affymetrix transcriptome analysis; conditions: topical 1% once a day for 8 days, female FUZZY rat
Procedure: The studies are carried out in female Fuzzy rats (Hsd: FUZZY-fz) 10 weeks old at the beginning of the study. The animals are treated at a dose of 1% (PPARg agonist Rosiglitazone in solution in acetone) once a day for 8 days. Two hours after the final treatment, the animals are sacrificed by euthanasia and the skin on the back is removed. After incubation in […], the epidermis carrying the sebaceous glands is detached from the dermis (epidermal split). After grinding of the samples, the mRNA is prepared using Qiagen columns, in accordance with the suppliers' instructions. The material thus prepared is subjected to large-scale transcriptome analysis on an Affymetrix platform. The data are subsequently standardized and, after statistical analysis, the results produced are expressed in arbitrary expression units (see below) accompanied, for each piece of data, by a statistical value for presence of the transcript (presence=1; absence=0).

Structure (SMILES): CCCCCCCNC(=O)N(C)c1cccc(-c2ccc(C[C@H](OCC)C(=O)O)cc2)n1 [C, (S)-2-ethoxy-3-{4-[6-(3-heptyl-1-methylureido)pyridin-2-yl]phenyl}propionic acid]
- CES3 Relative induction - kinetics (hours): 0 [1]: 1
- CES3 Relative induction - kinetics (hours): 8 [1]: 0.33
- CES3 Relative induction - kinetics (hours): 24 [1]: 0.12
- CES3 Relative induction - kinetics (hours): 48 [1]: 0.02
- CES3 Relative induction - kinetics (hours): 96 [1]: 0.00
- CES1 Relative induction - kinetics (hours): 0 [2]: 1
- CES1 Relative induction - kinetics (hours): 8 [2]: 0.55
- CES1 Relative induction - kinetics (hours): 24 [2]: 0.38
- CES1 Relative induction - kinetics (hours): 48 [2]: 0.04
- CES1 Relative induction - kinetics (hours): 96 [2]: 0.03

Structure (SMILES): CN(CCOc1ccc(CC2SC(=O)NC2=O)cc1)c1ccccn1 (stereo not shown) [Rosiglitazone]
- Significance of the expression after treatment with 1% Rosiglitazone (presence =1, absence =0) ([3]; control condition 1): 0
- Expression after treatment with 1% Rosiglitazone (CES3, 1370363_at) ([3]; control condition 443): 15 arbitrary expression units

Structure (SMILES): CN(CCOc1ccc(CC2SC(=O)NC2=O)cc1)c1ccccn1 (stereo not shown) [A, 5-{4-[2-(methylpyridin-2-ylamino)ethoxy]benzyl}thiazolidine-2,4-dione]
- CES3 Relative induction - kinetics (hours): 0 [1]: 1
- CES3 Relative induction - kinetics (hours): 8 [1]: 1.72
- CES3 Relative induction - kinetics (hours): 24 [1]: 0.46
- CES3 Relative induction - kinetics (hours): 48 [1]: 0.22
- CES3 Relative induction - kinetics (hours): 96 [1]: 0.07
- CES1 Relative induction - kinetics (hours): 0 [2]: 1
- CES1 Relative induction - kinetics (hours): 8 [2]: 1.93
- CES1 Relative induction - kinetics (hours): 24 [2]: 1.01
- CES1 Relative induction - kinetics (hours): 48 [2]: 0.45
- CES1 Relative induction - kinetics (hours): 96 [2]: 0.13
